According to patent US9605064B2, “Methods and compositions for treatment of skin disorders” (AbbVie Biotechnology Ltd, priority 2006, dated 2017):
Marks after values point to notes of the source that are not given here.

Key:
[1] = tested on: patients with moderate to severe chronic plaque psoriasis; assay: Physician's Global Assessment (PGA), Phase II trial with 48-week extension; assay type: in vivo, human; conditions: for Percentage of Patients Achieving PGA “Clear” or “Almost Clear”: modified ITT, NRI; for PGA “Clear”/“Almost Clear”: after 60 weeks of 40 mg eow
Source text: Efficacy outcome measures included PASI and PGA.
The Physician's Global Assessment (PGA), which was used as a clinical endpoint in the trial, was used to determine the MCID for DLQI. The PGA is a seven point scale used to measure disease severity from a physician's evaluation. Scoring under the PGA ranges from 1 (Clear) to 7 (Severe). Categories for the 7-point scale include the following: • Severe: very marked plaque elevation, scaling and/or erythema; • Moderate to severe: marked plaque elevation, scaling and/or erythema; • Moderate: moderate plaque elevation, scaling and/or erythema; • Mild to moderate: intermediate between moderate and mild; • Mild: slight plaque elevation, scaling and/or erythema; • Almost clear: intermediate between mild and clear; and • Clear: no signs of psoriasis (post-inflammatory hypopigmentation or hyperpigmentation could be present). Scoring regions were from 1 (clear) to 7 (severe). PGA was assessed at screening; baseline; week 1; week 2; week 4; week 8; and week 12/early termination; and follow up. The same investigator performed the assessment for each patient throughout the study. Statistical methods were performed according to the following summary. Analyses were performed on blinded data, combining results from all three groups. Changes in the PGA from baseline to week 12 were correlated with changes in DLQI total score.
The PGA is a seven-point scale used to measure the severity of disease at the time of the physician's evaluation. The seven disease categories are: • Severe: very marked plaque elevation, scaling, and/or erythema • Moderate to Severe: marked plaque elevation, scaling, and/or erythema • Moderate: moderate plaque elevation, scaling, and/or erythema • Mild to moderate: intermediate between moderate and mild • Mild: slight plaque elevation, scaling, and/or erythema • Almost Clear: intermediate between mild and clear • Clear: no signs of psoriasis (post-inflammatory hypopigmentation or hyperpigmentation could be present).
The PGA scale is scored from 1 (Clear) to 7 (Severe). The PGA was assessed by the investigator at screening, baseline, and Weeks 1, 2, 4, 8, 12/Early Termination, and the follow-up visit. Each study site was to make every attempt to have the same investigator perform these assessments throughout the study for each patient.
The PGA is a 7-point scale used to measure disease severity from a physician's evaluation. The categories for the 7-point scale include: Severe: very marked plaque elevation, scaling, and/or erythema; Moderate to severe: marked plaque elevation, scaling, and/or erythema; Moderate: moderate plaque elevation, scaling, and/or erythema; Mild to moderate: intermediate between moderate and mild; Mild: slight plaque elevation, scaling, and/or erythema; Almost clear: intermediate between mild and clear; and Clear: no signs of psoriasis (post-inflammatory hypopigmentation or hyperpigmentation could be present). The scoring ranges are from 1 (Clear) to 7 (Severe). PGA was assessed at screening, baseline, Week 1, Week 2, Week 4, Week 8, Week 12/early termination, and follow-up. The same investigator performed this assessment for each patient throughout the study.

[2] = tested on: patients with moderate to severe chronic plaque psoriasis; assay: PASI response and PGA, 120-week open-label extension study; assay type: in vivo, human; conditions: 40 mg eow, as observed
Source text: Exclusion criteria included prior TNF-antagonist therapy.

Adalimumab: a human anti-TNF mAb, described in U.S. Pat. No. 6,090,382 as D2E7 (HUMIRA, Abbott Laboratories)
Percentages of Patients with PGA “Clear” or “Almost Clear” ([1]; Week 12, 40 mg eow (Table 78)): 51%
Percentages of Patients with PGA “Clear” or “Almost Clear” ([1]; Week 12, 40 mg weekly (Table 78)): 81%
Percentage of Patients Achieving PGA “Clear” or “Almost Clear” ([1]; Week 12, adalimumab 40 mg eow): 49* %
Percentage of Patients Achieving PGA “Clear” or “Almost Clear” ([1]; Week 12, adalimumab 40 mg weekly): 76* %
Percentage of Patients Achieving PGA “Clear” or “Almost Clear” ([1]; Week 24, adalimumab 40 mg eow): 64%
Percentage of Patients Achieving PGA “Clear” or “Almost Clear” ([1]; Week 24, adalimumab 40 mg weekly): 72%
Percentage of Patients Achieving PGA “Clear” or “Almost Clear” ([1]; Week 24, placebo/adalimumab 40 mg eow (adalimumab from Week 12)): 45%
Percentage of Patients Achieving PGA “Clear” or “Almost Clear” ([1]; Week 36, adalimumab 40 mg eow): 60%
Percentage of Patients Achieving PGA “Clear” or “Almost Clear” ([1]; Week 36, adalimumab 40 mg weekly): 68%
Percentage of Patients Achieving PGA “Clear” or “Almost Clear” ([1]; Week 36, placebo/adalimumab 40 mg eow (adalimumab from Week 12)): 51%
Percentage of Patients Achieving PGA “Clear” or “Almost Clear” ([1]; Week 60, adalimumab 40 mg eow): 44%
Percentage of Patients Achieving PGA “Clear” or “Almost Clear” ([1]; Week 60, adalimumab 40 mg weekly): 52%
Percentage of Patients Achieving PGA “Clear” or “Almost Clear” ([1]; Week 60, placebo/adalimumab 40 mg eow (adalimumab from Week 12)): 45%
PGA “Clear” or “Almost Clear” ([1]; baseline PASI ≧10 and DLQI >10, 40 mg eow, Week 12): 62 % of Patients
PGA “Clear” or “Almost Clear” ([1]; baseline PASI ≧10 and DLQI >10, 40 mg eow, Week 24): 69 % of Patients
PGA “Clear” or “Almost Clear” ([1]; baseline PASI ≧10 and DLQI >10, 40 mg eow, Week 36): 65 % of Patients
PGA “Clear” or “Almost Clear” ([1]; baseline PASI ≧10 and DLQI >10, 40 mg eow, Week 60): 54 % of Patients
PGA “Clear” or “Almost Clear” ([1]; baseline PASI ≧10 and DLQI >10, 40 mg weekly, Week 12): 70 % of Patients
PGA “Clear” or “Almost Clear” ([1]; baseline PASI ≧10 and DLQI >10, 40 mg weekly, Week 24): 74 % of Patients
PGA “Clear” or “Almost Clear” ([1]; baseline PASI ≧10 and DLQI >10, 40 mg weekly, Week 36): 65 % of Patients
PGA “Clear” or “Almost Clear” ([1]; baseline PASI ≧10 and DLQI >10, 40 mg weekly, Week 60): 52 % of Patients
PGA “Clear” or “Almost Clear” ([1]; baseline PASI ≧10 and DLQI >10, placebo/adalimumab 40 mg eow, Week 24): 33 % of Patients
PGA “Clear” or “Almost Clear” ([1]; baseline PASI ≧10 and DLQI >10, placebo/adalimumab 40 mg eow, Week 36): 44 % of Patients
PGA “Clear” or “Almost Clear” ([1]; baseline PASI ≧10 and DLQI >10, placebo/adalimumab 40 mg eow, Week 60): 39 % of Patients
PGA “Clear” or “Almost Clear” ([1]; dosage escalation group (eow to 40 mg weekly, n = 30), Week 60): 20%
PGA “Clear”/“Almost Clear” ([1]; no prior use): 44%
PGA “Clear”/“Almost Clear” ([1]; prior biologic use): 38%
PGA “Clear”/“Almost Clear” ([1]; prior systemic use): 47%
PASI 50 response, % Patients ([2]; Week 12): 78.7%
PASI 75 response, % Patients ([2]; Week 12): 56.2%
PASI 90 response, % Patients ([2]; Week 12): 29.2%
PASI 100 response, % Patients ([2]; Week 12): 11.2%
PASI 50 response, % Patients ([2]; Week 24): 86.7%
PASI 75 response, % Patients ([2]; Week 24): 74.7%
PASI 90 response, % Patients ([2]; Week 24): 52%
PASI 100 response, % Patients ([2]; Week 24): 20%
PASI 50 response, % Patients ([2]; Week 48): 96.7%
PASI 75 response, % Patients ([2]; Week 48): 81.7%
PASI 90 response, % Patients ([2]; Week 48): 61.7%
PASI 100 response, % Patients ([2]; Week 48): 31.7%
PASI 50 response, % Patients ([2]; Week 72): 96.2%
PASI 75 response, % Patients ([2]; Week 72): 73.1%
PASI 90 response, % Patients ([2]; Week 72): 53.8%
PASI 100 response, % Patients ([2]; Week 72): 25%
PASI 50 response, % Patients ([2]; Week 96): 92.5%
PASI 75 response, % Patients ([2]; Week 96): 75.5%
PASI 90 response, % Patients ([2]; Week 96): 52.8%
PASI 100 response, % Patients ([2]; Week 96): 24.5%
PASI 50 response, % Patients ([2]; Week 120): 93.9%
PASI 75 response, % Patients ([2]; Week 120): 77.6%
